Reference: patent publication US9676997B2, “Compositions and methods for stabilizing luminogenic substrates” (Promega Corporation, priority 2014, dated 2017)

Assays:
[1] = Stability of 1.25 mM coelenterazine-h in 50% ethanol and 50% propylene glycol with or without 225 mM ATT, HPLC and Arrhenius plots; assay type: physicochemical
Procedure: The stability of coelenterazine-h in the presence and absence of ATT was measured over time at different temperatures. Specifically, 1.25 mM coelenterazine-h was present in a solution of 50% ethanol and 50% propylene glycol (i.e., the solution without ATT) or a solution of 50% ethanol and 50% propylene glycol with 225 mM ATT (i.e., the solution with ATT). These two solutions were incubated at −20° C., room temperature (RT), 40° C., or 60° C. and analyzed at for 0 days, 1 day, 3 days, 7 days, 15 days, and 30 days.
(§1) Following incubation, high performance liquid chromatography (HPLC) was utilized to identify the components of the respective solutions at each time point. Specifically, an Agilent 1100 HPLC instrument was used and equipped with a quaternary pump, thermostatted autosampler and column compartment, and a G1311B diode-array detector. The column used was a Synergi-MAX-RP (Phenomenex, Torrance, Calif.) 100 AÅ 50×4.6 2.5 μm. The run on the HPLC was a gradient run with 0.1% TFA in water and acetonitrile. Absorbance was measured at 262 nanometers (nm). Standards of coelenterazine-h and its known degradants were run to confirm both the retention time and absorbance trace. 5 μl of each solution was injected and the retention time of coelenterazine-h was 4.7 minutes at room temperature.
(§2) The results of the HPLC analysis are shown below in Tables 4 and 5 and FIGS. 2A and 2B, in which the values are reported as relative peak area percentage at 262 nm (i.e., the lamba max of the substrate). […] In each of FIGS. 2A and 2B, diamond is 1.25 mM coelenterazine-h incubated over time with or without 225 mM ATT, respectively, at −20° C., triangle is 1.25 mM coelenterazine-h incubated over time with or without 225 mM ATT, respectively, at room temperature (RT), star is 1.25 mM coelenterazine-h incubated over time with or without 225 mM ATT, respectively, at 40° C., and cross is 1.25 mM coelenterazine-h incubated over time with or without 225 mM ATT, respectively, at 60° C.
From the HPLC analysis, the half-life of coelenterazine-h in the presence of ATT at 40° C. and 60° C. was calculated to be 20 days and 5 days, respectively, while the half-life of coelenterazine-h in the absence of ATT at 20° C., 40° C. and 60° C. was calculated to be 24 days, 7.5 days and 2 days, respectively (see Table 6 below).
Additionally, Arrhenius plots were generated for coelenterazine-h in the presence and absence of ATT to calculate the half-life of coelenterazine-h at various temperatures. The Arrhenius equation is as follows: […]
In FIG. 9, the slope was −8131.2, the intercept was 22.6157, and R^2 was 0.9994.
In FIG. 10, the slope was −7310.53, the intercept was 21.4386, and R^2 was 0.9964.

[2] = Stability of 1.25 mM coelenterazine-h-h in 50% ethanol and 50% propylene glycol with or without 225 mM ATT, HPLC and Arrhenius plots; assay type: physicochemical
Procedure: The stability of coelenterazine-h-h in the presence and absence of ATT was measured over time at different temperatures. Specifically, 1.25 mM coelenterazine-h-h was present in a solution of 50% ethanol and 50% propylene glycol (i.e., the solution without ATT) or a solution of 50% ethanol and 50% propylene glycol with 225 mM ATT (i.e., the solution with ATT). These two solutions were incubated at −20° C., room temperature (RT), 40° C., or 60° C. and analyzed at 0 days, 1 day, 3 days, 7 days, 15 days, and 30 days.
as §1, with “coelenterazine-h-h” for “coelenterazine-h”, “coelenterazine-h-h” for “coelenterazine-h was 4.7 minutes”, “temperature was 5.5 minutes.” for “temperature.”
as §2, with “Tables 7” for “Tables 4”, “and 8” for “and 5”, “FIGS. 3A” for “FIGS. 2A”, “and 3B,” for “and 2B,”, “mM coelenterazine-h-h” for “mM coelenterazine-h”
From the HPLC analysis, the half-life of coelenterazine-h-h in the presence of ATT at 60° C. was calculated to be 10 days while the half-life of coelenterazine-h-h in the absence of ATT at 40° C. and 60° C. was calculated to be 27 days and 8 days, respectively (see Table 9 below).
Additionally, Arrhenius plots were generated for coelenterazine-h-h in the presence and absence of ATT to calculate the half-life of coelenterazine-h-h at various temperatures. The Arrhenius equation is as follows: […]
In FIG. 11, the slope was −10740.9, the intercept was 30.0575, and R^2 was 0.9967.
In FIG. 12, the […], and R^2 was 0.9648.

[3] = decomposition of coelenterazine-h
[4] = solution in 50% ethanol and 50% propylene glycol, 40° C., read-out: T1/2 Calculated from Arrhenius (converted)
[5] = solution of 50% ethanol and 50% propylene glycol, 40° C., read-out: T1/2 Estimated from graph (converted)
[6] = solution of 50% ethanol and 50% propylene glycol, 60° C., read-out: T1/2 Estimated from graph (converted)
[7] = decomposition of coelenterazine-h-h

In the case of `O=c1c(Cc2ccccc2)nc2c(Cc3ccccc3)[nH]c(-c3ccc(O)cc3)cn1-2` [Coelenterazine-h (15-957-39), coelenterazine-h], the “relative peak area percentage at 262 nm” value ([1]; 40° C., 0 days) is reported as 95.5%, the “relative peak area percentage at 262 nm” value ([1]; 40° C., 1 day) is reported as 84.3% and the “relative peak area percentage at 262 nm” value ([1]; 40° C., 3 days) is reported as 71.5%. For the same compound, the “relative peak area percentage at 262 nm” value ([1]; 40° C., 7 days) was 54.2%, the “relative peak area percentage at 262 nm” value ([1]; 40° C., 15 days) was 26.7% and the “relative peak area percentage at 262 nm” value ([1]; 40° C., 30 days) was 1.6%. The “relative peak area percentage at 262 nm” value ([1]; 60° C., 0 days) was 95.5%, the “relative peak area percentage at 262 nm” value ([1]; 60° C., 1 day) was 63.6% and the “relative peak area percentage at 262 nm” value ([1]; 60° C., 3 days) was 32.3%. The “relative peak area percentage at 262 nm” value ([1]; 60° C., 7 days) was 1.2%, the “relative peak area percentage at 262 nm” value ([1]; RT, 0 days) was 95.5% and the “relative peak area percentage at 262 nm” value ([1]; RT, 1 day) was 92.9%. For the same compound, the “relative peak area percentage at 262 nm” value ([1]; RT, 3 days) was 88.1%, the “relative peak area percentage at 262 nm” value ([1]; RT, 7 days) was 80.7% and the “relative peak area percentage at 262 nm” value ([1]; RT, 15 days) was 66.7%. For the same compound, the “relative peak area percentage at 262 nm” value ([1]; RT, 30 days) was 36.6%, the Arrhenius plot intercept [1, 3] was 21.4386 and the Arrhenius plot slope [1, 3] was −7310.53. The half-life at 1.25 mM [1, 4] was 4.7 days, the half-life at 1.25 mM ([1]; solution of 50% ethanol and 50% propylene glycol, 20° C., read-out: T1/2 Calculated from Arrhenius (converted)) was 23.2 days and the half-life at 1.25 mM ([1]; solution of 50% ethanol and 50% propylene glycol, 20° C., read-out: T1/2 Estimated from graph (converted)) was 24 days. The half-life at 1.25 mM [1, 5] was 7.5 days, the half-life at 1.25 mM ([1]; solution of 50% ethanol and 50% propylene glycol, 60° C., read-out: T1/2 Calculated from Arrhenius (converted)) was 1.2 days and the half-life at 1.25 mM [1, 6] was 2 days. For the same compound, the half-life at 1.25 mM ([1]; solution of 50% ethanol and 50% propylene glycol, −20° C., read-out: T1/2 Calculated from Arrhenius (converted)) was 1210 days, the “relative peak area percentage at 262 nm” value ([1]; −20° C., 0 days) was 95.5% and the “relative peak area percentage at 262 nm” value ([1]; −20° C., 1 day) was 95.4%. For the same compound, the “relative peak area percentage at 262 nm” value ([1]; −20° C., 3 days) was 95.0%, the “relative peak area percentage at 262 nm” value ([1]; −20° C., 7 days) was 95.0% and the “relative peak area percentage at 262 nm” value ([1]; −20° C., 15 days) was 94.6%. The “relative peak area percentage at 262 nm” value ([1]; −20° C., 30 days) was 88.8%.

In the case of `O=c1c(Cc2ccccc2)nc2c(Cc3ccccc3)[nH]c(-c3ccccc3)cn1-2` [Coelenterazine-h-h (1193-25-1), coelenterazine-h-h], the “relative peak area percentage at 262 nm” value ([2]; 40° C., 0 days) is reported as 98.7%, the “relative peak area percentage at 262 nm” value ([2]; 40° C., 1 day) is reported as 98.0% and the “relative peak area percentage at 262 nm” value ([2]; 40° C., 3 days) is reported as 95.1%. For the same compound, the “relative peak area percentage at 262 nm” value ([2]; 40° C., 7 days) was 89.1%, the “relative peak area percentage at 262 nm” value ([2]; 40° C., 15 days) was 74.9% and the “relative peak area percentage at 262 nm” value ([2]; 40° C., 30 days) was 46.0%. For the same compound, the “relative peak area percentage at 262 nm” value ([2]; 60° C., 0 days) was 98.7%, the “relative peak area percentage at 262 nm” value ([2]; 60° C., 1 day) was 94.3% and the “relative peak area percentage at 262 nm” value ([2]; 60° C., 3 days) was 80.0%. The “relative peak area percentage at 262 nm” value ([2]; 60° C., 7 days) was 59.1%, the “relative peak area percentage at 262 nm” value ([2]; 60° C., 15 days) was 0.2% and the “relative peak area percentage at 262 nm” value ([2]; RT, 0 days) was 98.7%. The “relative peak area percentage at 262 nm” value ([2]; RT, 1 day) was 98.2%, the “relative peak area percentage at 262 nm” value ([2]; RT, 3 days) was 97.5% and the “relative peak area percentage at 262 nm” value ([2]; RT, 7 days) was 94.4%. For the same compound, the “relative peak area percentage at 262 nm” value ([2]; RT, 15 days) was 86.6%, the “relative peak area percentage at 262 nm” value ([2]; RT, 30 days) was 85.7% and the Arrhenius plot intercept [2, 7] was 30.8352. The Arrhenius plot slope [2, 7] was −10650.1, the half-life at 1.25 mM ([2]; solution in 50% ethanol and 50% propylene glycol, 20° C., read-out: T1/2 Calculated from Arrhenius (converted)) was 172 days and the half-life at 1.25 mM [2, 4] was 16.9 days. For the same compound, the half-life at 1.25 mM ([2]; solution in 50% ethanol and 50% propylene glycol, 60° C., read-out: T1/2 Calculated from Arrhenius (converted)) was 2.2 days, the half-life at 1.25 mM [2, 5] was 27 days and the half-life at 1.25 mM [2, 6] was 8 days. For the same compound, the “relative peak area percentage at 262 nm” value ([2]; −20° C., 0 days) was 98.7%, the “relative peak area percentage at 262 nm” value ([2]; −20° C., 1 day) was 98.6% and the “relative peak area percentage at 262 nm” value ([2]; −20° C., 3 days) was 98.2%. For the same compound, the “relative peak area percentage at 262 nm” value ([2]; −20° C., 7 days) was 98.4%, the “relative peak area percentage at 262 nm” value ([2]; −20° C., 15 days) was 97.9% and the “relative peak area percentage at 262 nm” value ([2]; −20° C., 30 days) was 98.5%.
